{"source": "patent US20090004232A1", "about": "“BIOACTIVE PHARMACEUTICAL/COSMETIC COMPOSITIONS AND MIXED SOLUBILIZATION PROCESS FOR THE FORMULATION THEREOF” (priority 2005, published 2009)", "assay": "Physical stability of the emulsions on storage (phase shift, recrystallization / crystal growth of the active principle)", "format": "physicochemical", "method": "According to the invention, another physical stability parameter observed is, in particular, the absence of recrystallization phenomenon at ambient temperature and at 4° C., over three months.\nIn the present text, the expression “active principle in dissolved form” means a molecular state dispersion in a liquid, no crystallization of the active principle being visible to the naked eye nor even using a crossed polarization optical microscope, or using other more accurate techniques such as electron microscopy. Preferably, the bioactive principle particles have a size below 1 nm.\nPreferably, according to the invention, the expression “active principle in dissolved form” means a molecular state dispersion in a liquid for which no crystallization of the active principle is visible to the naked eye or using an optical microscope."}
{"smiles": "CC/C(=C\\C=C\\C(O)(CC)CC)c1cccc(OCc2ccc(CO)c(CO)c2)c1", "note": "[(4E,6E)-7-[3-(3,4-bishydroxymethylbenzyloxy)phenyl]-3-ethylnona-4,6-dien-3-ol]", "values": [{"measurement": "physical stability of the emulsion over time", "setting": "active principle solubilized in a single phase (hydrophilic phase or lipophilic phase)", "result": "have not made it possible to obtain an emulsion that was physically stable over time"}, {"measurement": "crystal growth phenomena of the active principle", "setting": "single phase solubilization, storage at 4° C.", "result": "appeared from the first month"}]}
